Measured values taken from US8987522B2, “Differentiation inducer to brown-like adipocyte of white adipocyte” (Uha Mikakuto Co., Ltd., priority 2012, dated 2015).

Tests used:
[1] = tested on: 3T3-L1 cells (mouse-derived preadipocytes); assay: Expression of indicator genes (Cidea, Cox7a1, UCP1) of differentiation induction to brown-like adipocytes, real-time RT-PCR; type: cell-based; details: for differentiation induction action to brown-like adipocytes from white adipocytes: 3T3-L1, overall conclusion
Method: (§1) In order to evaluate the differentiation induction action to brown-like adipocytes of white adipocytes, the evaluation was carried out using 3T3-L1 cells (mouse-derived preadipocytes). The 3T3-L1 preadipocytes are usually differentiated to white adipocytes through a differentiation induction process to be matured. However, by the differentiation induction to brown-like adipocytes, an expression of Cidea gene, an increase in the expression amount of Cox7a1 gene expressed in mitochondria, an increase in the expression amount of cytochrome c oxidase protein specifically expressed in mitochondria, and an expression enhancement of UCP1 gene, which are hardly observed in white adipocytes, are observed. Then, the differentiation induction to brown-like adipocytes of white adipocytes was confirmed based on the expression amount of each gene of Cidea, Cox7a1, and UCP1.
For samples, two substances of resveratrol and UHA1028 were used. Since the action of the differentiation induction to brown-like adipocytes was not observed in sinapic acid, sinapic acid was not used as a comparison target. Each sample was dissolved in dimethylsulfoxide (DMSO, manufactured by Wako Pure Chemical Industries, Ltd.) with a concentration of 4 mM and 2 mM to be used for a test.
Culture was carried out using “Dulbecco's modified Eagle medium” (DMEM, Product name, manufactured by Sigma-Aldrich Corporation) containing 10% “Foetal Bovine Serum” (FBS, manufactured by Biological industries), 1% “Antibiotic-Antimycotic”, and GIBCO (manufactured by Life Technology Corporation). Adipocytes to be used for the test were prepared in accordance with a usual method.
The test was carried out as follows. 2 mL of 3T3-L1 cells were sowed with a concentration of 5×10^4 cells/mL in a 6 well dish for cell culture (manufactured by Japan Becton, Dickinson and Company), and then cultured under the conditions of 37° C. and 5% CO2 for 24 hours. 24 hours later, the DMEM culture medium was exchanged to a DMEM culture medium which was adjusted in such a manner that the final concentration of the UHA1028 was 10 μM or the final concentration of the resveratrol was 20 μM, culture was continued in such a manner that the cells were confluent to 100%, and then culture was further carried out for 48 hours. Next, the culture medium was exchanged to a culture medium in which 10 μL of each sample (Final concentration of 20 μM and 10 μM) was added to 2 mL DMEM for differentiation, to which 1% of insulin, 0.5% of dexamethasone, and 0.1% of isobutylmethylxanthine were added, attached to “AdipoInducer Reagent” (Product name, manufactured by Takara Bio, Inc.), and then differentiation induction was carried out under the conditions of 37° C. and 5% CO2 for 48 hours. After the differentiation induction for 48 hours, the culture medium was exchanged to 2 mL of DMEM for maintaining culture to which 1% of insulin was added, and then culture was further carried out for one week for maturing adipocytes. One to which 0.5% of only DMSO which is a solvent was added was used as a control.
After the end of the culture, the total amount RNA was extracted from the cells using an RNA extraction kit (Product name: NucleoSpin (Registered Trademark) RNA II, manufactured by Takara Bio, Inc.) and refined. […]

[2] = tested on: 3T3-L1 cells (mouse-derived preadipocytes); assay: Expression of indicator protein CO1 (mitochondria marker), Western blot; type: cell-based
Method: as §1, with “an” for “an expression of Cidea gene, an increase in the expression amount of Cox7a1 gene expressed in mitochondria, an”, “mitochondria is” for “mitochondria, and an expression enhancement of UCP1 gene, which are hardly observed in white adipocytes, are”, “the CO1 protein.” for “each gene of Cidea, Cox7a1, and UCP1.”
Culture of cells was carried out by the same method as that of Example 2 using the same samples and cells as those in Example 2. […] After the extraction, the protein concentration was measured using a BCA protein assay kit (manufactured by Thermo Fisher Scientific K.K.). […]
After the electrophoresis, the proteins are transferred to PVDF membranes (manufactured by EMD Millipore) by a semidry blotting device “TRANS-BLOT S-D SEMI-DRY TRANSFER CELL” (Product name, manufactured by Bio-Rad Laboratories Inc.), and then blotting was carried out by Immunoblock (manufactured by DS Pharma Biomedical Co., Ltd.). […] The band strength of the detected band was calculated using an image analysis software “Image J”.

[3] = tested on: human vascular endothelial cells; details: Japanese Patent Application No. 2011-118367; cited from earlier work
mature adipocytes [4] = details: Japanese Patent Application No. 2011-145331; cited from earlier work
mature adipocytes [5] = details: Japanese Patent Application No. 2011-186054; cited from earlier work
preadipocytes = details: Japanese Patent Application No. 2012-240364; cited from earlier work
[6] = 3T3-L1, UHA1028 10 μM, as compared with resveratrol 20 μM, FIG. 1

| SMILES | differentiation induction action to brown-like adipocytes from white adipocytes [1] | expression amount of the Cox7a1 (mitochondria marker gene) [1, 6] | expression amount of the UCP1 gene [1, 6] | gene expression amount of the Cidea (marker gene of the brown-like adipocytes) [1, 6] | mitochondria marker protein (CO1) expressed in mature adipocytes ([2]; 3T3-L1, Western blot band strength, as compared with DMSO and resveratrol, FIG. 2) | amount of mitochondria in the cells ([2]; 3T3-L1, results of Examples 2 and 3, as compared with resveratrol) | sirtuin expression promotion action [3] | adiponectin production promotion action (mature adipocytes [4]) | lipoprotein lipase promotion action (mature adipocytes [5]) | differential inhibition action to mature adipocytes of preadipocytes (preadipocytes) |
| --- | --- | --- | --- | --- | --- | --- | --- | --- | --- | --- |
| COc1cc(/C=C/C(=O)O)cc(OC)c1O [sinapic acid, reference compound] | not observed |  |  |  |  |  |  |  |  |  |
| COc1cc(C(C)c2c(O)cc(/C=C/c3ccc(O)cc3)cc2O)cc(OC)c1O (centres unmarked) [UHA1028] | notably induced | significantly increased | significantly increased | significantly increased | significantly large | significantly increased | sirtuin expression promotion action | adiponectin production promotion action | lipoprotein lipase promotion action | differential inhibition action |
